According to PubChem BioAssay AID179 (DTP/NCI, 2004):
Where “and” joins values, the source holds several entries; their conditions need not be identical. Identical values can stand only once. Calls of active or inactive are those of the source.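 Rule for the calls: active = compounds giving half or more protection of infected cells from virus-caused growth loss, again on retest; inactive = the rest.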 Where a SMILES comes first, the peptide text is derived from it.

System: CEM cells HIV-1 protection, formazan growth assay
Assay: NCI AIDS Antiviral Assay
Conditions: for IC50: measured here: growth of uninfected CEM cells
Summary of the method: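 Category rules: moderately active means at least 50% protection on retest, and confirmed active means 100% protection reproducibly. The underlying data came from a formazan growth assay in HIV-1-infected CEM cells.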

## COc1cc(C(C#N)NNc2nc(C)cc(=O)[nH]2)cc(OC)c1OC (configuration not stated)
  EC50: > 105 µM
  IC50: > 105 µM

## COc1ccc(C2=Nc3ccccc3N=C(SC)C2)cc1
  EC50: 2.4 µM
  IC50: 17.8 µM

## CN1C(=O)N(C)C(=O)C(Nc2ccc([N+](=O)[O-])cc2)(SCCO)C1=O
  EC50: 97.7 µM
  IC50: 363 µM

## COC(=O)c1ccc(C)cc1C1CN=NC12Cc1cccc(C)c1C2=O (configuration not stated)
  EC50: > 200 µM
  IC50: > 200 µM

## Cc1cccc2c1C(=O)/C(=C/c1ccccc1C(=O)O)C2
  EC50: > 200 µM
  IC50: 123 µM

## NC(=O)c1cc(O)c(O)c(O)c1
  EC50: > 200 µM
  IC50: 17 µM

## CCCCCCCCCCCc1c(O)c(O)cc2nc3ccc(Sc4ccccc4)cc3nc12
  EC50: > 15.1 µM
  IC50: 4.57 µM

## CCOC(=O)CC/C(C)=N\n1c(Cc2ccc(Cl)cc2)n[nH]c1=O
  outcome: inactive

## COc1ccc(C(=O)O)c2c(=O)c3cccnc3[nH]c12
  outcome: inactive

## O=C(O)CNc1c2ccccc2nc2ccccc12
  outcome: inactive

## C=C(CCC(C)C1CCC2C3=C(C(=O)CC21C)C1(C)CCC(=O)[C@@H](C)C1CC3=O)C(C)C(=O)O (some centres not stated)
  EC50: > 200 µM
  IC50: 46.8 µM

## COc1cc2ccc1NC(=O)N1CCN(CC1)C(=O)Nc1ccc(cc1OC)-c1ccc(c(OC)c1)NC(=O)N1CCN(CC1)C(=O)Nc1ccc-2cc1OC
  EC50: > 0.933 µM
  IC50: > 0.933 µM

## [N-]=[N+]=Nc1cc(=O)[nH]c2ccccc12
  EC50: > 200 µM
  IC50: > 200 µM

## CSc1cc(-c2ccccn2)nc(-c2ccccn2)c1.CSc1cc(-c2ccccn2)nc(-c2ccccn2)c1.[Cu+2].[O-][Cl+3]([O-])([O-])[O-]
  EC50: > 200 µM
  IC50: 0.0631 µM

## O=C1c2ccsc2C(=O)c2sccc21
  EC50: > 2 µM
  IC50: 0.309 µM

## Cc1ccc(/C=C2\NC(=S)N(CN3CCOCC3)C2=O)cc1
  EC50: > 200 µM
  IC50: 45.7 µM

## O=C([CH-]C(=O)c1ccccc1)c1ccccc1.O=C([CH-]C(=O)c1ccccc1)c1ccccc1.[CH2-]CCC.[CH2-]CCC.[Sn+4]
  EC50: > 7.76 µM
  IC50: 0.427 µM

## COc1ccc(CCNC(=O)/C(=C\c2ccc3c(c2)OCO3)NC(=O)c2ccccc2)cc1OC
  EC50: > 200 µM
  IC50: > 200 µM

## Nc1ccc(N=Nc2ccc(-c3ccc(N=Nc4ccc(N)c5cc(S(=O)(=O)O)ccc45)cc3)cc2)c2ccc(S(=O)(=O)O)cc12
  outcome: active

## CSc1ncc2c(C#N)c3[nH]c4ccccc4n3c(=O)c2n1
  EC50: > 200 µM
  IC50: 6.46 µM

## Cc1c(C)c2ccc(OCC(O)COC(C)C)c(C)c2oc1=O (configuration not stated)
  EC50: > 200 µM
  IC50: 32.4 µM

## CC(CC[C@@H](O)C(C)(C)O)C1[C@@H](O)CC2(C)C3CC(O)C4C(C)(C)[C@@H](OC5OC(CO)C(O)C(O)C5O)CC[C@@]45C[C@@]35CC[C@]12C (some centres not stated)
  EC50: > 200 µM
  IC50: > 200 µM

## COc1ccccc1C1CC(c2ccccc2)=Nc2ccccc2S1 (configuration not stated)
  EC50: > 42.7 µM
  IC50: 8.13 µM

## COc1ccccc1NC(=S)N/N=C(/C)c1ccccn1
  EC50: > 0.2 µM
  IC50: 0.0339 µM

## Nc1nnc2c(n1)[nH]c1ccccc12
  EC50: > 74.1 µM
  IC50: > 74.1 µM

## C/C(=N/NC(N)=S)C(CN(C)C)C(C1=C(O)c2ccccc2OC1)c1ccccc1 (configuration not stated)
  EC50: > 141 µM
  IC50: 107 µM

## NC(=S)NCC12CC3CC(CC(C3)C1)C2
  outcome: inactive

## O=C1/C(=C/c2ccccc2Cl)Cc2ccccc21
  EC50: > 5.37 µM
  IC50: > 5.37 µM

## CN1CCc2sccc2C(c2ccccc2)O1 (configuration not stated)
  EC50: > 708 µM
  IC50: 275 µM

## O=C1N[C@H]2CCCC[C@@H]2C(=O)N1OS(=O)(=O)c1ccccc1
  EC50: > 200 µM
  IC50: > 200 µM

## CC1=CC(=C(c2cc(C)c(O)c(C(=O)O)c2)c2cc(C)c(O)c(C(=O)O)c2)C=C(C(=O)O)C1=O
  outcome: inactive

## CCOC(=O)N(c1ccccc1)N(CC)C(=O)/C(C)=N/Nc1ccc([N+](=O)[O-])cc1
  outcome: inactive

## CCCCCCCCCCCCCCCCCCNc1nc(=O)n(C2CC(O)C(COP(=O)(O)OCC3CCC(n4ccc(N)nc4=O)O3)O2)cc1F (configuration not stated)
  EC50: 1.51 µM
  IC50: 2.04 µM

## O=S1(=O)c2ccccc2NC(c2ccc3ccccc3c2)CC1c1ccccc1F (configuration not stated)
  EC50: > 6.46 µM
  IC50: > 6.46 µM

## CC(C)(CN1CCCCC1)C(=O)CC(SCCN)c1ccc(Cl)cc1 (configuration not stated)
  EC50: > 234 µM
  IC50: 12.6 µM

## COC1(C)C(=O)N2C1N(C(=O)OCc1ccccc1)CC2(C)C (configuration not stated)
  EC50: > 251 µM
  IC50: > 251 µM

## CCOC(=O)/C(=C/c1ccc([N+](=O)[O-])cc1)N(CC)CC
  EC50: > 324 µM
  IC50: > 324 µM

## OC(O)(C(F)(F)F)C(F)(F)F
  EC50: > 200 µM
  IC50: > 200 µM

## CC1(C)Oc2ccc3c(=O)cc(-c4ccc(F)cc4)oc3c2C1C(=O)O (configuration not stated)
  EC50: > 200 µM
  IC50: > 200 µM

## O=c1c(-c2ccccc2)c2n(c3ccccc13)CCN2
  EC50: > 200 µM
  IC50: > 200 µM

## CN1N=C(N)c2cn(C3OC(COP(=O)(O)O)C(O)C3O)c3ncnc1c23 (configuration not stated)
  EC50: > 57.5 µM
  IC50: 21.4 µM

## Cc1ccc(S(=O)(=O)N2CC3OC(C)(C)OC3C2CO)cc1 (configuration not stated)
  outcome: inactive

## COC(=O)C=Cc1ccc2nncnc2c1 (mixture of isomers)
  EC50: > 200 µM
  IC50: 44.7 µM

## O=C(N/C(=C\c1ccc(/C=C(\NC(=O)c2ccccc2)c2nc3ccccc3[nH]2)cc1)c1nc2ccccc2[nH]1)c1ccccc1
  outcome: inactive

## O=[N+]([O-])c1ccccc1NC1CCN(CCCC2(c3ccc(F)cc3)OCCO2)CC1
  EC50: > 200 µM
  IC50: 12.9 µM

## CSc1nc2c(=O)n(-c3ccccc3)c(=S)n(-c3ccccc3)c2s1
  EC50: > 200 µM
  IC50: 117 µM

## CC(=O)ONC(=O)CSc1nn2cc(-c3ccccc3)nc2s1
  EC50: 186 µM
  IC50: > 200 µM

## O=c1[nH]c(=O)n(C2CC(O)C(CO)O2)cc1C#Cc1cc(C(F)(F)F)cc(C(F)(F)F)c1 (configuration not stated)
  EC50: > 40.7 µM
  IC50: > 40.7 µM

## Cc1cc(O)c(/C=N/c2nc(-c3ccc([N+](=O)[O-])cc3)cs2)c(=O)o1
  EC50: > 200 µM
  IC50: > 200 µM

## O=C(c1ccco1)n1c2ccc(Br)cc2c2nc3ccccc3nc21
  EC50: > 50.1 µM
  IC50: 22.4 µM

## C/C(=N/NC(=S)Nc1cccc(Cl)c1)c1ccccn1
  EC50: > 0.2 µM
  IC50: 0.0851 µM

## [O]=[Sb][c]1ccc(Cl)cc1
  EC50: > 200 µM
  IC50: 2.63 µM

## CC(C)(C)/[N+]([O-])=[N+](\[O-])C(C)(C)C
  EC50: > 200 µM
  IC50: 33.9 µM

## CCOC(=O)c1oc2ccc(OC)c3c2c1CCC3
  outcome: inactive

## O=c1cn[nH]c2cccc(Cl)c12
  EC50: > 117 µM
  IC50: > 117 µM

## Nc1cc2c3c(cccc3c1)C(=O)N(CCN1CCCC1)C2=O
  EC50: > 200 µM
  IC50: 1.07 µM

## O=CN1CCN(C=O)C(O)C1O (configuration not stated)
  EC50: > 200 µM
  IC50: > 200 µM

## CCC/C=C/C=C\C(=O)O[C@@H]1[C@@H](C)[C@]2(O)[C@@H]3C=C(C)C(=O)[C@H]3CC(COC(C)=O)=C[C@H]2[C@@H]2C(C)(C)[C@]12OC(C)=O
  outcome: inactive

## COC(=O)[C@H](CO)NC(=O)CC/C(C)=C/c1ccccc1
  EC50: > 200 µM
  IC50: 191 µM

## CNc1nncc2[nH]cnc12
  EC50: > 200 µM
  IC50: > 200 µM

## CC1C2CC(CC23OCC(CCl)O3)C1(C)C (configuration not stated)
  EC50: > 200 µM
  IC50: > 200 µM

## c1ccc2c(c1)Nc1nc3ccccc3nc1N2
  EC50: > 100 µM
  IC50: > 100 µM

## CC(NC(=O)C(C)NC(=O)C(N)CCP(C)(=O)O)C(=O)O (configuration not stated)
  outcome: inactive

## COC(=O)C1=CN(C2CCCCC2)C2(c3ccccc3)c3ccccc3C(=O)OC(=O)C12 (configuration not stated)
  EC50: 132 µM
  IC50: > 200 µM

## Cc1ccc(N2C=[N+](C)c3ccc(C)cc3C2)cc1
  EC50: > 200 µM
  IC50: 33.9 µM

## CC1(C)CCC2(C(=O)OC3OC(CO)C(O)C(O)C3O)CCC3(CO)C(=CCC4C5(C)CC(O)C(O)C(C)(C(=O)OC6OC(CO)C(O)C(O)C6O)C5CCC43C)C2C1 (configuration not stated)
  outcome: inactive

## COC1=CC(=O)C=C(CO)C1=O
  EC50: > 562 µM
  IC50: 10 µM

## CCOc1ccc(NC(=S)/N=C/C(C(=O)Nc2ccccc2C)=C(\C)O)cc1
  EC50: > 200 µM
  IC50: > 200 µM

## CC12SC(C)(c3c[se]cc31)C1C(=O)N(c3ccccc3)C(=O)C12 (configuration not stated)
  outcome: inactive

## O=C(O)c1ccccc1SSc1ccccc1C(=O)O
  EC50: 112 µM and > 589 µM and > 200 µM
  IC50: 589 µM and > 589 µM and > 200 µM

## COc1cc(C2c3cccc4cccc(c34)C3CCC(=O)N32)cc(OC)c1O (configuration not stated)
  EC50: > 50.1 µM
  IC50: 1.32 µM

## CCCCC1(N=[N+]=[N-])C(=O)C2C=CC=C3c4ccccc4N(C1=O)C32 (configuration not stated)
  outcome: inactive

## COc1cc(CSc2ccc(O)cc2)cc(O)c1O
  EC50: > 126 µM
  IC50: 22.9 µM

## O=C1OCCN1N1C(=O)CC2(CCCCC2)C1=O
  EC50: > 200 µM
  IC50: > 200 µM

## CC[n+]1c(-c2ccccc2)c2cc(N)ccc2c2ccc(N)cc21
  EC50: > 708 µM
  IC50: 0.794 µM and 0.525 µM

## CCC(C)C(NC(=O)CNC(=O)C(Cc1cnc[nH]1)NC(=O)C(NC(=O)C(CS)NC(=O)C(CCC(N)=O)NC(=O)C(NC(=O)C(NC(=O)C(CO)NC(=O)C(NC(=O)C(CC(N)=O)NC(=O)C(NC(=O)C(CO)NC(=O)C1CCCN1C(=O)CNC(=O)C(NC(=O)CN)C(C)O)C(C)O)C(C)C)C(C)O)C(C)C)C(C)O)C(=O)NC(CCCN=C(N)N)C(N)=O (configuration not stated) (H-GTGPSTNVSTVQCTHGIR-NH2; configuration not given here)
  EC50: > 50.1 µM
  IC50: > 50.1 µM

## COc1ccc(CNc2nc3cc(C(F)(F)F)ccc3nc2C)cc1OC
  EC50: > 19.1 µM
  IC50: 14.5 µM

## [N-]=[N+]=CC(=O)C1(C(=O)C=[N+]=[N-])CC1
  EC50: > 251 µM
  IC50: 240 µM

## Cc1cc2c(c(C(=O)NCCC(=O)O)c1)Oc1c(cc(C)cc1C(=O)NCCC(=O)O)S2
  EC50: > 200 µM
  IC50: > 200 µM

## O=C(/C=C(\O)C(=O)O)/C=C(\O)c1ccccc1Cl
  EC50: 389 µM
  IC50: 589 µM

## O=C(c1ccc(Cl)cc1)N1CC1
  EC50: > 200 µM
  IC50: 81.3 µM

## Cc1ncc([N+](=O)[O-])n1CCO
  EC50: > 200 µM
  IC50: > 200 µM

## Oc1cc(-c2ccccc2)cn2c1nc1ccccc12
  EC50: > 200 µM
  IC50: 1.07 µM

## C1CSCCSCCCSC2CCCCC2SC1 (configuration not stated)
  EC50: > 22.4 µM
  IC50: > 22.4 µM

## O=c1ssc(Cl)c1Cl
  EC50: > 200 µM
  IC50: 33.9 µM

## O=C(CO)CC(=O)C(=O)Nc1nc([N+](=O)[O-])cs1
  EC50: > 132 µM
  IC50: > 132 µM
